# Assays:
# Type in all cases: biochemical
# [1] = biological target: T1, bovine pancreatic trypsin (Bos taurus, UniProt P00760); test: Trypsin chromogenic enzyme assay
# T1 sequence (P00760 24-246): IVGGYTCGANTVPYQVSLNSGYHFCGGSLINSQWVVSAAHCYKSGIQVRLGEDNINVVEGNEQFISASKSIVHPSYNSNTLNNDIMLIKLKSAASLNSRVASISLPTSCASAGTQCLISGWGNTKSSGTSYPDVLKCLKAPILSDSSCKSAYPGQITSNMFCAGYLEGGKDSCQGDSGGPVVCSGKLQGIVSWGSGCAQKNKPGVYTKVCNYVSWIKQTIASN
# Experimental: (§1) The ability of compounds of the present invention to act as a selective inhibitor of thrombin activity was assessed by determining the concentration of test-compound which inhibited the activity of this enzyme by 50%, (IC50), and comparing this value to that determined for all or some of the following related serine proteases: recombinant tissue plasminogen activator (rt-PA), plasmin, activated protein C, chymotrypsin, factor Xa and trypsin.
# (§2) The buffer used for all assays was HBSA (10 mM HEPES, pH 7.5, 150 mM sodium chloride, 0.1% bovine serum albumin).
# (§3) The assay for IC50 determinations was conducted by combining in appropriate wells of a Corning microtiter plate, 50 microliters of HBSA, 50 microliters of the test compound at a specified concentration (covering a broad concentration range) diluted in HBSA (or HBSA alone for V0 (uninhibited velocity) measurement), and 50 microliters of the enzyme diluted in HBSA. Following a 30 minute incubation at ambient temperature, 50 microliters of the substrate at the concentrations specified below were added to the wells, yielding a final total volume of 200 microliters. The initial velocity of chromogenic substrate hydrolysis was measured by the change in absorbance at 405 nm using a Thermo Max® Kinetic Microplate Reader over a 5 minute period in which less than 5% of the added substrate was utilized. The concentration of added inhibitor which caused a 50% decrease in the initial rate of hydrolysis was defined as the IC50 value.
# Trypsin catalytic activity was determined using the chromogenic substrate, S-2222 (benzoyl-L-isoleucine-L-glutamic acid-[gamma-methyl ester]-L-arginine-p-nitroanilide), which was obtained from DiaPharma Group. […] Purified (3×-crystallized; TRL3) bovine pancreatic trypsin was obtained from Worthington Biochemical Corp. The enzyme was reconstituted in deionized water and diluted into HBSA prior to assay in which the final concentration was 0.5 nM.
# human plasmin = biological target: T2, human plasmin (Homo sapiens, UniProt P00747); test: Plasmin chromogenic enzyme assay
# T2 construct: Purified human plasmin; purchased Enzyme Research Laboratories, Inc
# Experimental: as §1, §2, §3
# Plasmin catalytic activity was determined using the chromogenic substrate, S-2366 [L-pyroglutamyl-L-prolyl-L-arginine-p-nitroaniline hydrochloride], which was obtained from DiaPharma group. The substrate was made up in deionized water followed by dilution in HBSA prior to the assay in which the final concentration was 300 micromolar (about 2:.5-times Km). Purified human plasmin was obtained from Enzyme Research Laboratories, Inc. The enzyme was diluted into HBSA prior to assay in which the final concentration was 1.0 nM.
# human α-thrombin = biological target: T3, human α-thrombin (Homo sapiens, UniProt P00734); test: Thrombin (fIIa) chromogenic enzyme assay; conditions: for IC50: 0 min
# T3 construct: Purified human α-thrombin; purchased Enzyme Research Laboratories, Inc
# Experimental: For screening compounds using these assays, the compounds of the present invention are dissolved in buffer to give solutions containing concentrations such that assay concentrations range from 0 to 100 micromolar. In the assays for thrombin, plasmin, t-PA, aPC, chymotrypsin, and trypsin, a chromogenic synthetic substrate is added to a solution containing test compound and the enzyme of interest and the residual catalytic activity of that enzyme is determined spectrophometrically. The IC50 of a compound of the present invention is determined from the rate of substrate turnover caused by the specific enzyme being measured. IC50 is the concentration of test compound which gives 50% inhibition of the rate of substrate turnover. Likewise, the Ki of a compound of the present invention is determined from the rate of substrate turnover caused by the specific enzyme being measured at various […] concentrations. Example A provides exemplars of in vitro assays used to select the compounds of the present invention.
# as §1, §2
# as §3, with “Following a 30 minute incubation at ambient temperature, 50 microliters of the substrate at the concentrations specified below were added to the wells, yielding a final total volume of 200 microliters.” left out
# Enzyme activity was determined using the chromogenic substrate, Pefachrome t-PA (CH3SO2-D-hexahydrotyrosine-glycyl-L-Arginine-p-nitroaniline, obtained from Pentapharm Ltd.). The substrate was reconstituted in deionized water prior to use. Purified human α-thrombin was obtained from Enzyme Research Laboratories, Inc. The buffer used for all assays was HBSA (10 mM HEPES, pH 7.5, 150 mM sodium chloride, 0.1% bovine serum albumin).
# The initial velocity of Pefachrome t-PA hydrolysis was measured by the change in absorbance at 405 nm using a Thermo Max® Kinetic Microplate Reader over a 5 minute period in which less than 5% of the added substrate was utilized. The concentration of:added inhibitor which caused a 50% decrease in the initial rate of hydrolysis was defined as the IC50 value.
# Factor Xa = biological target: T4, Factor Xa (Homo sapiens, UniProt P00742); test: Factor Xa chromogenic enzyme assay; conditions: read-out: fXa IC50
# T4 construct: purchased Enzyme Research Laboratories, Inc. (South Bend, Ind.)
# Experimental: as §1, §2, §3
# Factor Xa catalytic activity was determined using the chromogenic substrate S-2765 (N-benzyloxycarbonyl-D-arginine-L-glycine-L-arginine-p-nitroaniline), obtained from DiaPharma Group (Franklin, Ohio). All substrates were reconstituted in deionized water prior to use. […] Purified human Factor X was obtained from Enzyme Research Laboratories, Inc. (South Bend, Ind.) and Factor Xa (FXa) was activated and prepared from it as described [Bock, P. E., Craig, P. A., Olson, S. T., and Singh, P. Arch. Biochem. Biophys. 273:375-388 (1989)]. The enzyme was diluted into HBSA prior to assay in which the final concentration was 0.25 nM.
# T4 sequence (P00742 235-488 limits assumed): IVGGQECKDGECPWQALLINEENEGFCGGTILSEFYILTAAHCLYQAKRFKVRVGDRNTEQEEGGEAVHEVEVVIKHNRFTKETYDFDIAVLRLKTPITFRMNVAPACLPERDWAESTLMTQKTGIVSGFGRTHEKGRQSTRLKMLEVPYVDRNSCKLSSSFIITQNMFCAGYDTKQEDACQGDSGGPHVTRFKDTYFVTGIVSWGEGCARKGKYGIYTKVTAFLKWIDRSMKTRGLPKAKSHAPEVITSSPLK
# T4 sequence (P00742 41-179 partner limits assumed): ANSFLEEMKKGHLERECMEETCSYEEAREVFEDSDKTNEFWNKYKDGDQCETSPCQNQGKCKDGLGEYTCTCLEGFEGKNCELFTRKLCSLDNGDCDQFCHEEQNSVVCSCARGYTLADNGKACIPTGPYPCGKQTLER
# T2 sequence (P00747 581-810 limits assumed): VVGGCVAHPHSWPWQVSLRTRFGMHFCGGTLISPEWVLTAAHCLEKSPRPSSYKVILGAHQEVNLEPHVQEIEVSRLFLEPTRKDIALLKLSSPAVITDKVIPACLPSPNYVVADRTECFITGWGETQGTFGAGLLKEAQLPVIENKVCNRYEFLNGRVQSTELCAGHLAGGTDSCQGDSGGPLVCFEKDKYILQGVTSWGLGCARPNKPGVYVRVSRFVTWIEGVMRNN
# T2 sequence (P00747 97-580 partner limits assumed): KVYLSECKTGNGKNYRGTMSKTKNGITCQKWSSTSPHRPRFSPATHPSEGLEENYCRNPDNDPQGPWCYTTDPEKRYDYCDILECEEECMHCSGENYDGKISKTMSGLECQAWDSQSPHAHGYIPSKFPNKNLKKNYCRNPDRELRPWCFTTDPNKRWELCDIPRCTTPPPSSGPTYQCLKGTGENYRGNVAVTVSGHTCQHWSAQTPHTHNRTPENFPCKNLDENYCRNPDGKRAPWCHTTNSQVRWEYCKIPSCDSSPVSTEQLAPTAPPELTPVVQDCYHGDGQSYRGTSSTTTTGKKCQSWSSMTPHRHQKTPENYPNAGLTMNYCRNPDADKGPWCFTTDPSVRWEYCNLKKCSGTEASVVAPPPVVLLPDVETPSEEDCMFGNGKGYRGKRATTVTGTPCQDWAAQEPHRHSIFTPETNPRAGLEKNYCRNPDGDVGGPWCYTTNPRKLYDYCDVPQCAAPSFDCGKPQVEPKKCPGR
compound,measurement,setting,value
"N/C(=N\O)c1ccc(CNC(=O)[C@@H]2Cc3cccc4c3N2C(=O)[C@@H](NS(=O)(=O)c2ccc3c(c2)CCO3)CC4)cc1 [Example 60, N-(2,3-Dihydrobenzo[b]furanyl-5-sulfonyl)-Haic-aminomethylphenyl-N-hydroxyamidine]",IC50,[1],≥ 2500 nM
same,IC50,human plasmin,≥ 2500 nM
same,Ki,human α-thrombin,≥ 2500 nM
same,IC50,human α-thrombin,≥ 2500 nM
same,IC50,Factor Xa,≥ 2500 nM
"N=C(N)c1ccc(CNC(=O)[C@@H]2Cc3cccc4c3N2C(=O)[C@@H](NS(=O)(=O)c2ccc3c(c2)CCO3)CC4)cc1 [Example 61, N-(2,3-Dihydrobenzo[b]furanyl-5-sulfonyl)-Haic-aminomethylphenylamidine]",IC50,[1],≤ 100 nM
same,IC50,human plasmin,≥ 2500 nM
same,Ki,human α-thrombin,≤ 100 nM
same,IC50,human α-thrombin,≤ 100 nM
same,IC50,Factor Xa,300 to 2500 nM
N[C@H]1CC[C@H](CNC(=O)CN2CCCC[C@H](NS(=O)(=O)Cc3ccccc3)C2=O)CC1 [Example 65],IC50,[1],≥ 2500 nM
same,IC50,human plasmin,≥ 2500 nM
same,Ki,human α-thrombin,100 to 300 nM
same,IC50,human α-thrombin,300 to 2500 nM
same,IC50,Factor Xa,≥ 2500 nM
Cc1nc(N)ccc1CNC(=O)CN1CCCC[C@H](NS(=O)(=O)Cc2ccccc2)C1=O [Example 66],IC50,[1],≥ 2500 nM
same,IC50,human plasmin,≥ 2500 nM
same,Ki,human α-thrombin,≤ 100 nM
same,IC50,human α-thrombin,300 to 2500 nM
same,IC50,Factor Xa,≥ 2500 nM
N=C(N)c1ccc(CNC(=O)CN2CCCC[C@H](NS(=O)(=O)Cc3ccccc3)C2=O)cc1 [Example 67],IC50,[1],300 to 2500 nM
same,IC50,human plasmin,≥ 2500 nM
same,Ki,human α-thrombin,≤ 100 nM
same,IC50,human α-thrombin,100 to 300 nM
same,IC50,Factor Xa,300 to 2500 nM

# Source: US6541467B1, “Thrombin inhibitors having a lactam at P3” (Corvas International, Inc., priority 2000, dated 2003)
